Reference: ChEMBL document CHEMBL3044789, “Comparing weed and crop seedling response to pre-emergence pendimethalin application in Corchorus olitorius and Abelmoschus esculentus” (Crop Prot, 2006)

Key:
Calopogonium mucunoides [1] = test: Herbicidal activity against Calopogonium mucunoides in Abelmoschus esculentus plots assessed as major weed growth at 0.33 kg a.i/ha after 2 weeks; format: functional
[2] = tested on: Rottboellia cochinchinensis; test: Herbicidal activity against Rottboellia cochinchinensis in Abelmoschus esculentus plots assessed as weed cover at 0.33 kg a.i/ha after 4 weeks (reference value: 22.6 +/- 0.49 %); format: functional
Ageratum conyzoides [3] = test: Herbicidal activity against Ageratum conyzoides in Abelmoschus esculentus plots assessed as minor weed growth at 1.32 kg a.i/ha after 2 weeks; format: functional
Calopogonium mucunoides [4] = test: Herbicidal activity against Calopogonium mucunoides in Corchorus olitorius plots assessed as major weed growth at 0.99 kg a.i/ha after 2 weeks; format: functional
[5] = tested on: Rottboellia cochinchinensis; test: Herbicidal activity against Rottboellia cochinchinensis in Corchorus olitorius plots assessed as major weed growth at 0.33 kg a.i/ha after 2 weeks; format: functional
Synedrella nodiflora [6] = test: Herbicidal activity against Synedrella nodiflora in Corchorus olitorius plots assessed as minor weed growth at 1.32 kg a.i/ha after 2 weeks; format: functional
Chromolaena odorata [7] = test: Herbicidal activity against Chromolaena odorata in Corchorus olitorius plots assessed as minor weed growth at 0.99 kg a.i/ha after 2 weeks; format: functional
Ageratum conyzoides [8] = test: Herbicidal activity against Ageratum conyzoides in Corchorus olitorius plots assessed as minor weed growth at 1.32 kg a.i/ha after 2 weeks; format: functional
Asteraceae = test: Herbicidal activity against Aspilia africana in Corchorus olitorius plots assessed as minor weed growth at 0.66 kg a.i/ha after 2 weeks; format: functional
Talinum fruticosum [9] = test: Herbicidal activity against Talinum fruticosum in Abelmoschus esculentus plots assessed as weed cover at 0.99 kg a.i/ha after 7 weeks (reference value: 14.7 +/- 0.46 %); format: functional
Ageratum conyzoides [10] = test: Herbicidal activity against Ageratum conyzoides in Corchorus olitorius plots assessed as weed recovery at 1.32 kg a.i/ha after 2 weeks (reference value: 78.3 +/- 0.74 %); format: functional
Euphorbia heterophylla [11] = test: Herbicidal activity against Euphorbia heterophylla in Corchorus olitorius plots assessed as weed recovery at 0.99 kg a.i/ha after 2 weeks (reference value: 78.3 +/- 0.74 %); format: functional
Synedrella nodiflora [12] = test: Herbicidal activity against Synedrella nodiflora in Abelmoschus esculentus plots assessed as weed cover at 0.33 kg a.i/ha after 2 weeks (reference value: 63.5 +/- 0.29 %); format: functional
Corchorus olitorius [13] = test: Phytotoxicity in Corchorus olitorius assessed as crop seedling injury at 0.33 kg a.i/ha after 2 weeks relative to untreated control; format: organism-based; details: in vivo, 336 h
Synedrella nodiflora [14] = test: Herbicidal activity against Synedrella nodiflora in Corchorus olitorius plots assessed as weed cover at 0.99 kg a.i/ha after 7 weeks (reference value: 1.7 +/- 0.56 %); format: functional
Commelina diffusa = test: Herbicidal activity against Commelina diffusa in Corchorus olitorius plots assessed as weed cover at 0.66 kg a.i/ha after 7 weeks (reference value: 1.7 +/- 0.56 %); format: functional
Abelmoschus esculentus [15] = test: Phytotoxicity in Abelmoschus esculentus assessed as seedling emergence at 1.32 kg a.i/ha treated to soil after 7 weeks (reference value: 95 +/- 0.05 %); format: organism-based; details: in vivo, other, 1176 h
Corchorus olitorius [16] = test: Phytotoxicity in Corchorus olitorius assessed as shoot length at 1.32 kg a.i/ha applied as solution after 7 weeks (reference value: 22.9 +/- 0.8 mm); format: organism-based; details: in vivo, other, 1176 h
Abelmoschus esculentus [17] = test: Phytotoxicity in Abelmoschus esculentus assessed as root length at 0.99 kg a.i/ha applied as solution after 7 weeks (reference value: 23 +/- 0.34 mm); format: organism-based; details: in vivo, other, 1176 h
Chromolaena odorata [18] = test: Herbicidal activity against Chromolaena odorata in Corchorus olitorius plots assessed as weed cover at 0.33 kg a.i/ha after 2 weeks (reference value: 81.7 +/- 0.43 %); format: functional
Ageratum conyzoides [19] = test: Herbicidal activity against Ageratum conyzoides in Corchorus olitorius plots assessed as weed cover at 0.33 kg a.i/ha after 2 weeks (reference value: 81.7 +/- 0.43 %); format: functional
Mimosa pudica = test: Herbicidal activity against Mimosa pudica in Abelmoschus esculentus plots assessed as minor weed growth at 0.33 kg a.i/ha after 2 weeks; format: functional
Calopogonium mucunoides [20] = test: Herbicidal activity against Calopogonium mucunoides in Abelmoschus esculentus plots assessed as minor weed growth at 0.66 kg a.i/ha after 2 weeks; format: functional
Abelmoschus esculentus [21] = test: Phytotoxicity in Abelmoschus esculentus assessed as crop seedling injury at 0.99 kg a.i/ha after 2 weeks relative to untreated control; format: organism-based; details: in vivo, 336 h
Cyperus rotundus [22] = test: Herbicidal activity against Cyperus rotundus in Corchorus olitorius plots assessed as weed recovery at 0.66 kg a.i/ha after 2 weeks (reference value: 78.3 +/- 0.74 %); format: functional
Synedrella nodiflora [23] = test: Herbicidal activity against Synedrella nodiflora in Corchorus olitorius plots assessed as weed recovery at 0.33 kg a.i/ha after 2 weeks (reference value: 78.3 +/- 0.74 %); format: functional
Chromolaena odorata [24] = test: Herbicidal activity against Chromolaena odorata in Corchorus olitorius plots assessed as weed recovery at 0.33 kg a.i/ha after 2 weeks (reference value: 78.3 +/- 0.74 %); format: functional
Ageratum conyzoides [25] = test: Herbicidal activity against Ageratum conyzoides in Corchorus olitorius plots assessed as weed cover at 1.32 kg a.i/ha after 7 weeks (reference value: 1.7 +/- 0.56 %); format: functional
Abelmoschus esculentus [26] = test: Phytotoxicity in Abelmoschus esculentus assessed as seed germination at 0.66 kg a.i/ha applied as solution after 7 weeks (reference value: 85.7 +/- 0.36 %); format: organism-based; details: in vivo, other, 1176 h
Abelmoschus esculentus [27] = test: Phytotoxicity in Abelmoschus esculentus assessed as shoot length at 0.99 kg a.i/ha treated to soil after 7 weeks (reference value: 8.5 +/- 0.34 mm); format: organism-based; details: in vivo, other, 1176 h
Calopogonium mucunoides [28] = test: Herbicidal activity against Calopogonium mucunoides in Corchorus olitorius plots assessed as weed cover at 1.32 kg a.i/ha after 4 weeks (reference value: 20.1+/- 0.57 %); format: functional
Synedrella nodiflora [29] = test: Herbicidal activity against Synedrella nodiflora in Corchorus olitorius plots assessed as weed cover at 0.66 kg a.i/ha after 4 weeks (reference value: 20.1+/- 0.57 %); format: functional
Abelmoschus esculentus [30] = test: Phytotoxicity in Abelmoschus esculentus assessed as crop seedling injury at 0.33 kg a.i/ha after 2 weeks relative to untreated control; format: organism-based; details: in vivo, 336 h
Synedrella nodiflora [31] = test: Herbicidal activity against Synedrella nodiflora in Abelmoschus esculentus plots assessed as weed recovery at 0.99 kg a.i/ha after 2 weeks (reference value: 60.1 +/- 0.46 %); format: functional
Cyperus rotundus [32] = test: Herbicidal activity against Cyperus rotundus in Abelmoschus esculentus plots assessed as weed recovery at 0.66 kg a.i/ha after 2 weeks (reference value: 60.1 +/- 0.46 %); format: functional
Euphorbia heterophylla [33] = test: Herbicidal activity against Euphorbia heterophylla in Abelmoschus esculentus plots assessed as weed recovery at 0.66 kg a.i/ha after 2 weeks (reference value: 60.1 +/- 0.46 %); format: functional
Talinum fruticosum [34] = test: Herbicidal activity against Talinum fruticosum in Corchorus olitorius plots assessed as weed cover at 0.99 kg a.i/ha after 4 weeks (reference value: 20.1+/- 0.57 %); format: functional
Chromolaena odorata [35] = test: Herbicidal activity against Chromolaena odorata in Corchorus olitorius plots assessed as weed cover at 0.33 kg a.i/ha after 4 weeks (reference value: 20.1+/- 0.57 %); format: functional

## CCC(CC)Nc1c([N+](=O)[O-])cc(C)c(C)c1[N+](=O)[O-] [PENDIMETHALIN]
Calopogonium mucunoides [1]
  Activity: 31 /m2
[2]
  Activity: 53.8%
Ageratum conyzoides [3]
  Activity: 1 /m2
Calopogonium mucunoides [4]
  Activity: 31 /m2
[5]
  Activity: 31 /m2
Synedrella nodiflora [6]
  Activity: 1 /m2
Chromolaena odorata [7]
  Activity: 1 /m2
Ageratum conyzoides [8]
  Activity: 1 /m2
Asteraceae
  Activity: 1 /m2
Talinum fruticosum [9]
  Activity: 83.9%
Ageratum conyzoides [10]
  Activity: 13.3%
Euphorbia heterophylla [11]
  Activity: 21.7%
Synedrella nodiflora [12]
  Activity: 56.8%
Corchorus olitorius [13]
  Activity: 41.7%
Synedrella nodiflora [14]
  Activity: 95%
Commelina diffusa
  Activity: 100%
Abelmoschus esculentus [15]
  Activity: 85%
Corchorus olitorius [16]
  Activity: 5.3 mm
Abelmoschus esculentus [17]
  Activity: 11.8 mm
Chromolaena odorata [18]
  Activity: 63.3%
Ageratum conyzoides [19]
  Activity: 63.3%
Mimosa pudica
  Activity: 1 /m2
Calopogonium mucunoides [20]
  Activity: 1 /m2
Abelmoschus esculentus [21]
  Activity: 47.9%
Cyperus rotundus [22]
  Activity: 33.3%
Synedrella nodiflora [23]
  Activity: 31.7%
Chromolaena odorata [24]
  Activity: 31.7%
Ageratum conyzoides [25]
  Activity: 95%
Abelmoschus esculentus [26]
  Activity: 46%
Abelmoschus esculentus [27]
  Activity: 5.6 mm
Calopogonium mucunoides [28]
  Activity: 33.3%
Synedrella nodiflora [29]
  Activity: 63.3%
Abelmoschus esculentus [30]
  Activity: 39.9%
Synedrella nodiflora [31]
  Activity: 36.2%
Cyperus rotundus [32]
  Activity: 47.9%
Euphorbia heterophylla [33]
  Activity: 47.9%
Talinum fruticosum [34]
  Activity: 48.3%
Chromolaena odorata [35]
  Activity: 73.3%
